# Oligonucleotides are written 5' to 3', each unit as a sugar letter and its base; * is a phosphorothioate linkage, no mark a phosphodiester; rarer units and linkages stand in square brackets, end groups in braces. Plain capitals give the bases only. k = constrained ethyl (cEt); d = 2'-deoxy (DNA)
# What was measured:
# KLK3 mRNA = KLK3 mRNA (AR target gene) in C4-2B MR cells; type: cell-based, human
# KLK2 mRNA = KLK2 mRNA (AR target gene) in C4-2B MR cells; type: cell-based, human
# C4-2B MR cells = assay: Proliferation of MDV3100-resistant C4-2B cells (CellTiter 96); type: cell-based, human; conditions: 6 days
# Outline: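 Antisense oligonucleotides were added to the culture medium at 0.04, 0.20, 1.00 and 5.00 μM, with a non-targeting oligonucleotide as negative control. After 6 days of treatment, proliferation was read with CellTiter 96 AQueous One. Values are percent inhibition relative to untreated cells.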
# LMR20 cells = assay: Proliferation of MDV3100-resistant LMR20 cells (MTT; with R1881 or DHT); type: cell-based, human; conditions: 5 days
# Outline: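 Cells were held in phenol red-free medium with charcoal-stripped FBS and given antisense oligonucleotides plus 1 nM R1881 or 10 nM DHT from day 1. Proliferation was read by MTT after 5 days of treatment and reported as percent inhibition against non-treated cells.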
# LNCaP cells = assay: LNCaP cell proliferation, ASO in combination with MDV3100 (Example 20); type: cell-based, human; conditions: for Proliferation (% untreated control) in LNCaP without MDV-3100: 5 days
# Procedure: LNCaP cells were plated at 1,000 cells per well. […] ISIS 549148 was included as a negative control. […] After a treatment period of 5 days, the proliferative capacity of the cancer cells was measured with CellTiter 96® AQueous One or CellTiter-Glo® Solution Cell Proliferation kit (Promega), following the manufacturer's instructions. […]
# PSA mRNA = assay: PSA expression in LNCaP cells (complete, CSS+DHT medium); type: cell-based, human; conditions: for Percent inhibition of PSA expression in LNCaP cells cultured in CSS + DHT medium: CSS + DHT (1 nM) medium, 48 hrs; for Percent inhibition of PSA expression in LNCaP cells cultured in complete medium: 48 hours
# Procedure: Cells were plated at 1,000 cells per well. […] ISIS 549148 was included as a negative control. […] After an incubation period of 48 hours, RNA levels of AR, PSA and TMPRSS2 were measured.
# Cells were plated at 2,000 cells per well and cultured in phenol red-free RPMI supplemented with 5% charcoal stripped serum (Gibco) media for 16 hours. […] ISIS 549148 was included as a negative control. […] After an incubation period of 4 hrs, DHT was added to the medium to a final concentration of 1 nM as indicated. RNAs were collected 48 hrs later and levels of AR, PSA and TMPRSS2 were measured. In the absence of DHT, AR expression in LNCaP cells was 95%, PSA expression was 7% and TMPRSS2 expression was 24% compared to the untreated control.
# full length AR mRNA = assay: Full-length AR RNA in VCaP cells (complete, CSS+DHT medium); type: cell-based, human; conditions: RNAiMax, 48 hrs
# Procedure: Cells were plated at 10,000 cells per well. […] After an incubation period of 48 hrs, RNA levels of full length AR, the V7 variant, PSA and TMPRSS2 were measured.
# After an incubation period of 48 hrs, RNA levels of full length AR, the V7 variant, PSA and TMPRSS2 were measured. The data is presented in Tables 108 expressed as percent expression of gene levels compared to the untreated control.
# Cells were plated at 15,000 cells per well and cultured in CSS media for 16 hours. […] After 4 hrs, 1 nM DHT was added. […] After an incubation period of 48 hrs, RNA levels of AR, PSA and TMPRSS2 were measured.
# MDA-MB-453 tumor = assay: Tumor volume in MDA-MB-453 breast cancer orthotopic model; type: in vivo, NSG mice; conditions: Study 2, MDA-MB-453 model, NSG mice, 50 mg/kg s.c. 5 days per week for 2 weeks
substance,measurement,setting,value
549458 (kG*kT*kT*dG*dA*dT*dT*dT*dA*dA*dT*dG*dG*kT*kT*kG) [compound 549458],Percent inhibition of KLK3 mRNA in C4-2B MR cells,KLK3 mRNA; 0.04 μM,0%
same,Percent inhibition of KLK3 mRNA in C4-2B MR cells,KLK3 mRNA; 0.20 μM,42%
same,Percent inhibition of KLK3 mRNA in C4-2B MR cells,KLK3 mRNA; 1.00 μM,81%
same,Percent inhibition of KLK3 mRNA in C4-2B MR cells,KLK3 mRNA; 5.00 μM,92%
same,Percent inhibition of KLK2 mRNA in C4-2B MR cells,KLK2 mRNA; 0.04 μM,35%
same,Percent inhibition of KLK2 mRNA in C4-2B MR cells,KLK2 mRNA; 0.20 μM,47%
same,Percent inhibition of KLK2 mRNA in C4-2B MR cells,KLK2 mRNA; 1.00 μM,87%
same,Percent inhibition of KLK2 mRNA in C4-2B MR cells,KLK2 mRNA; 5.00 μM,93%
same,Percent inhibition of C4-2B MR cell proliferation,C4-2B MR cells; 0.04 μM,8%
same,Percent inhibition of C4-2B MR cell proliferation,C4-2B MR cells; 0.20 μM,16%
same,Percent inhibition of C4-2B MR cell proliferation,C4-2B MR cells; 1.00 μM,41%
same,Percent inhibition of C4-2B MR cell proliferation,C4-2B MR cells; 5.00 μM,56%
"TGATTTAATGGTTGCA [ISIS 569236] (cEt/MOE gapmer chemistry, further chemistry not given here) [targets intron 1]",Percent inhibition of LMR20 cell proliferation,"LMR20 cells; CSS + DHT, ASO 0.04 μM",0%
same,Percent inhibition of LMR20 cell proliferation,"LMR20 cells; CSS + DHT, ASO 0.20 μM",10%
same,Percent inhibition of LMR20 cell proliferation,"LMR20 cells; CSS + DHT, ASO 1.0 μM",32%
same,Percent inhibition of LMR20 cell proliferation,"LMR20 cells; CSS + DHT, ASO 5.0 μM",57%
same,Percent inhibition of LMR20 cell proliferation,"LMR20 cells; CSS + R1881, ASO 0.04 μM",0%
same,Percent inhibition of LMR20 cell proliferation,"LMR20 cells; CSS + R1881, ASO 0.20 μM",2%
same,Percent inhibition of LMR20 cell proliferation,"LMR20 cells; CSS + R1881, ASO 1.0 μM",34%
same,Percent inhibition of LMR20 cell proliferation,"LMR20 cells; CSS + R1881, ASO 5.0 μM",61%
same,Percent inhibition of LMR20 cell proliferation,"LMR20 cells; CSS, ASO 0.04 μM",0%
same,Percent inhibition of LMR20 cell proliferation,"LMR20 cells; CSS, ASO 0.20 μM",10%
same,Percent inhibition of LMR20 cell proliferation,"LMR20 cells; CSS, ASO 1.0 μM",0%
same,Percent inhibition of LMR20 cell proliferation,"LMR20 cells; CSS, ASO 5.0 μM",12%
same,LMR20 cell proliferation,"LMR20 cells; in the presence of R1881 or DHT, 0.04-5.0 μM",significantly inhibited MDV3100-resistant prostate cancer cell proliferation in a dose dependent manner more extensively than ISIS 554221
same,Proliferation (% untreated control) in LNCaP with 0.08 μM MDV-3100,LNCaP cells; ASO dose 0.04 μM + 0.08 μM MDV-3100,74 % untreated control
same,Proliferation (% untreated control) in LNCaP with 0.4 μM MDV-3100,LNCaP cells; ASO dose 0.04 μM + 0.4 μM MDV-3100,48 % untreated control
same,Proliferation (% untreated control) in LNCaP with 2.0 μM MDV-3100,LNCaP cells; ASO dose 0.04 μM + 2.0 μM MDV-3100,41 % untreated control
same,Proliferation (% untreated control) in LNCaP with […] MDV-3100,LNCaP cells; ASO dose 0.04 μM + […] MDV-3100,92 % untreated control
same,Proliferation (% untreated control) in LNCaP without MDV-3100,LNCaP cells; ASO dose 0.04 μM,91 % untreated control
same,Proliferation (% untreated control) in LNCaP with 0.08 μM MDV-3100,LNCaP cells; ASO dose 0.08 μM + 0.08 μM MDV-3100,98 % untreated control
same,Proliferation (% untreated control) in LNCaP with 0.4 μM MDV-3100,LNCaP cells; ASO dose 0.08 μM + 0.4 μM MDV-3100,61 % untreated control
same,Proliferation (% untreated control) in LNCaP with 2.0 μM MDV-3100,LNCaP cells; ASO dose 0.08 μM + 2.0 μM MDV-3100,44 % untreated control
same,Proliferation (% untreated control) in LNCaP with […] MDV-3100,LNCaP cells; ASO dose 0.08 μM + […] MDV-3100,104 % untreated control
same,Proliferation (% untreated control) in LNCaP without MDV-3100,LNCaP cells; ASO dose 0.08 μM,106 % untreated control
same,Proliferation (% untreated control) in LNCaP with 0.08 μM MDV-3100,LNCaP cells; ASO dose 0.2 μM + 0.08 μM MDV-3100,51 % untreated control
same,Proliferation (% untreated control) in LNCaP with 0.4 μM MDV-3100,LNCaP cells; ASO dose 0.2 μM + 0.4 μM MDV-3100,41 % untreated control
same,Proliferation (% untreated control) in LNCaP with 2.0 μM MDV-3100,LNCaP cells; ASO dose 0.2 μM + 2.0 μM MDV-3100,35 % untreated control
same,Proliferation (% untreated control) in LNCaP with […] MDV-3100,LNCaP cells; ASO dose 0.2 μM + […] MDV-3100,58 % untreated control
same,Proliferation (% untreated control) in LNCaP without MDV-3100,LNCaP cells; ASO dose 0.2 μM,60 % untreated control
same,Proliferation (% untreated control) in LNCaP with 0.08 μM MDV-3100,LNCaP cells; ASO dose 1.0 μM + 0.08 μM MDV-3100,31 % untreated control
same,Proliferation (% untreated control) in LNCaP with 0.4 μM MDV-3100,LNCaP cells; ASO dose 1.0 μM + 0.4 μM MDV-3100,27 % untreated control
same,Proliferation (% untreated control) in LNCaP with 2.0 μM MDV-3100,LNCaP cells; ASO dose 1.0 μM + 2.0 μM MDV-3100,23 % untreated control
same,Proliferation (% untreated control) in LNCaP with […] MDV-3100,LNCaP cells; ASO dose 1.0 μM + […] MDV-3100,29 % untreated control
same,Proliferation (% untreated control) in LNCaP without MDV-3100,LNCaP cells; ASO dose 1.0 μM,35 % untreated control
same,synergy with MDV3100,LNCaP cells; LNCaP cells,synergistic with MDV3100
same,"cell proliferation inhibited, combination","LNCaP cells; LNCaP cells, 0.04 μM ASO in combination with 0.08 μM MDV3100",26%
same,"inhibited cell proliferation, ASO alone","LNCaP cells; LNCaP cells, ASO alone at 0.04 μM",9%
same,Percent inhibition of PSA expression in LNCaP cells cultured in CSS + DHT medium,PSA mRNA; 0.04 μM,4%
same,Percent inhibition of PSA expression in LNCaP cells cultured in CSS + DHT medium,PSA mRNA; 0.2 μM,11%
same,Percent inhibition of PSA expression in LNCaP cells cultured in CSS + DHT medium,PSA mRNA; 1 μM,45%
same,Percent inhibition of PSA expression in LNCaP cells cultured in CSS + DHT medium,PSA mRNA; 5.0 μM,59%
same,Percent inhibition of PSA expression in LNCaP cells cultured in complete medium,PSA mRNA; 0.04 μM,0%
same,Percent inhibition of PSA expression in LNCaP cells cultured in complete medium,PSA mRNA; 0.2 μM,19%
same,Percent inhibition of PSA expression in LNCaP cells cultured in complete medium,PSA mRNA; 1 μM,63%
same,Percent inhibition of PSA expression in LNCaP cells cultured in complete medium,PSA mRNA; 5.0 μM,81%
same,Percent inhibition of full-length AR,"full length AR mRNA; CSS medium, 1.34 nM",23%
same,Percent inhibition of full-length AR,"full length AR mRNA; CSS medium, 4.0 nM",21%
same,Percent inhibition of full-length AR,"full length AR mRNA; CSS medium, 13.4 nM",38%
same,Percent inhibition of full-length AR,"full length AR mRNA; CSS medium, 40 nM",35%
same,Percent inhibition of full-length AR,"full length AR mRNA; complete medium, 1.34 nM",0%
same,Percent inhibition of full-length AR,"full length AR mRNA; complete medium, 4.0 nM",41%
same,Percent inhibition of full-length AR,"full length AR mRNA; complete medium, 13.4 nM",49%
same,Percent inhibition of full-length AR,"full length AR mRNA; complete medium, 40 nM",74%
same,Tumor volumes,MDA-MB-453 tumor; Day 0,134
same,Tumor volumes,MDA-MB-453 tumor; Day 8,283
same,Tumor volumes,MDA-MB-453 tumor; Day 13,260
same,Tumor volumes,MDA-MB-453 tumor; Day 20,230
same,Tumor volumes,MDA-MB-453 tumor; Day 23,264
same,Tumor volumes,MDA-MB-453 tumor; Day 27,329
same,Tumor volumes,MDA-MB-453 tumor; Day 29,323
